Measurements as given in patent US5166066A (priority 1991, dated 1992).

Assays:
[1] = system: α1 - and β1 -subunits of the bovine brain GABAA receptor; settings: CHO cells, dexamethasone-inducible promoter; cited from earlier work
[2] = system: recombinant receptors composed of α6 -, β2 - and β2-subunits; settings: transiently expressed in cultured mammalian cells; cited from earlier work
[3] = target: T1, GABAA receptor-Cl- channel complex composed of rat α1, β2, γ2 subunits (Rattus norvegicus, UniProt P18508+P62813+P63138); test: whole-cell patch clamp of GABA-mediated Cl- currents in transfected HEK 293 cells; type: cell-based; settings: cell line 2C-1C, HEK 293, holding potential -60 mV
T1 construct: expressed in transfected cells
T1 sequence (P62813 28-455): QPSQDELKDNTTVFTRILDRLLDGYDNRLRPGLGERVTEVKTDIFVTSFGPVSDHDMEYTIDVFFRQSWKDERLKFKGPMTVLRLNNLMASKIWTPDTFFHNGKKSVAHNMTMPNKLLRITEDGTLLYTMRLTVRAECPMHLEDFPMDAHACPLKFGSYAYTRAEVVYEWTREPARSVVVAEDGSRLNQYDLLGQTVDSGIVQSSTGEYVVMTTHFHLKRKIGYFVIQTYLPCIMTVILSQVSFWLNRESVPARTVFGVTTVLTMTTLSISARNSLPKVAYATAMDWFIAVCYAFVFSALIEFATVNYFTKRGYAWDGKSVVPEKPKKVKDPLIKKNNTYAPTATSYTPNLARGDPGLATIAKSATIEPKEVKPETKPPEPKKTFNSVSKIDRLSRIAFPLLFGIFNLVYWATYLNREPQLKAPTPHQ
T1 sequence (P63138 26-474): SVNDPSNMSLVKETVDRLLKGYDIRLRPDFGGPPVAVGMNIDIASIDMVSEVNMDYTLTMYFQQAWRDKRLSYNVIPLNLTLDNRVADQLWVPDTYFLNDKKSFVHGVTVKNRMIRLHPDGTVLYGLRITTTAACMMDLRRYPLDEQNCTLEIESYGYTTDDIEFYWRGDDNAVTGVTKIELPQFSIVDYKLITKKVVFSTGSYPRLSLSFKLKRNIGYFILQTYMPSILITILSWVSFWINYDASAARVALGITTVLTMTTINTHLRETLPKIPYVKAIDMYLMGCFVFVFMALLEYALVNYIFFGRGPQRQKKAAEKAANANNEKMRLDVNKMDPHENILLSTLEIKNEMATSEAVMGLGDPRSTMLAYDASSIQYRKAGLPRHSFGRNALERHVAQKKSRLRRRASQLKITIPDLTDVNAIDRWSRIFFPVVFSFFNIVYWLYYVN
T1 sequence (P18508 39-466): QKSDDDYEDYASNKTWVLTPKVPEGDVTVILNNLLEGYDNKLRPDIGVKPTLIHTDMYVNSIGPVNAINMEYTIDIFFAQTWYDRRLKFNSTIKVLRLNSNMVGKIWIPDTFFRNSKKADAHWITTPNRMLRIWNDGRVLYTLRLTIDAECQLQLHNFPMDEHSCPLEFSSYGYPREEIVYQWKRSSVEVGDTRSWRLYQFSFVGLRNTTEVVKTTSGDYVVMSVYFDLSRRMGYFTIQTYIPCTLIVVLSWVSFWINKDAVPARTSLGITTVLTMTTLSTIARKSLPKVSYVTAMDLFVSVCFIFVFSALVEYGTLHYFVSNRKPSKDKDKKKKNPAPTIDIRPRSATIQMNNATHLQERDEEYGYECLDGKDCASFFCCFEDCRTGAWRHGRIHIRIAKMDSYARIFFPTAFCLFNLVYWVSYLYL
Source text: GABAA receptors are gated channels which, upon binding to BAGA, allow chlorine ions to pass into the cell. In the presence of benzodiazepines. The GABAA receptor will allow GABA to open the channel and let more chlorine ion into the cell if the benzodiazepine is an agonist or less chlorine ions into the cell if the benzodiazepine is an inverse agonist. The amount of chlorine ions that pass through the GABAA receptor can be directly measured using the patch clamp assay. This assay measures the charge flow into and out of an electrode sealed on the surface of a cell. The flow of chlorine ions entering the cell is measured as a function of the current that leaves the cell to maintain electrical equilibrium within the cell as the gate opens. […] The range of sensitivity of the whole cell patch clamp assay is about 1000 pA and allows for the distinguishing of currents of between 2 and 5 pA.
These tests were carried out by patch-clamp electrophysiology of whole cells. The whole-cell configuration of patch clamp technique was used to record the GABA-mediated Cl-currents in human embryonic kidney cells transfected with GABAA receptor subunits. Patch pipettes were made of borosilicate glass with a resistance of 0.5 to 2 megohms. The cell was bathed in the buffer medium containing (mM) NaCl 135, KCl 5, MgCl2 1, CaCl2 1.8 and Hepes 5, pH 7.2. […]

Row | Compound | effect on current response of α1β1 GABAA receptors [1] | binding affinity to recombinant receptors [2] | further results
1 | picrotoxin | reversibly blocked | – | –
2 | CCOC(=O)c1ncn2c1CN(C)C(=O)c1cc(N=[N+]=[N-])ccc1-2 [Ro15-4513] | – | high affinity | –
3 | CN1CCc2cc3c(cc2[C@H]1[C@@H]1OC(=O)c2c1ccc1c2OCO1)OCO3 [bicuculline] | reversibly blocked | – | –
4 | CCOC(=O)c1ncn2c1CN(C)C(=O)c1cc(F)ccc1-2 [Ro15-1788] | – | high affinity | –
5 | NCCCC(=O)O [GABA, γ-Aminobutyric acid] | – | – | response of cells to drug (Cl- current) [3]: responsive
6 | NCc1cc(=O)[nH]o1 [muscimol] | – | high affinity | –
